Consider 1 molecule from ChEMBL document CHEMBL1130768, “DNA cleavage by 7-methylbenzopentathiepin: a simple analog of the antitumor antibiotic varacin” (1998).

The IC90 is the concentration at which the effect reaches the 90% level. High values mean weaker potency, low ones greater potency.

Molecules are shown by their SMILES. In brackets after ≈: the same amount, converted by molar mass. Activity calls are given as the source filed them. No cut-off for these calls is given here.

The test system of test [1] is HCT-116. In words: Cytotoxicity against a human colon cancer cell line (HCT116 cells) was reported. It counts as functional.
Test [2] has as its system Candida albicans. The experiment in a line: Antifungal activity against candida albicans was determined; Active. The class given is functional, organism-based.

With `COc1cc(CCN)c2c(c1OC)SSSSS2` [VARACIN], the IC90 in test [1] is 0.05 µg/mL (≈ 0.147 µM). Besides, the outcome in test [2] was Active.
